{"source": "patent USRE47388E1", "about": "“Agents for alleviating side effects” (TAIHO PHARMACEUTICAL CO., LTD., priority 1999, dated 2019)", "key": {"[1]": {"assay": "Test 3: suppression of body weight increase in tumor-bearing rats", "type": "in vivo, Donryu male rats", "settings": "for Suppression of body weight (in words): CDDP alone 6 mg/kg, Compound 1 for seven consecutive days with CDDP; for Body weight change: day 0 to day 8; for Weight change ratio (%): ratio of suppression of body weight increase vs control", "description": "CDDP was suspended in saline so as to obtain a 0.6 mg/ml suspension, and the suspension was stirred by use of a stirrer for about 20 minutes at room temperature. The suspension was subjected to sonication for 5 minutes while being cooled with ice to thereby obtain a test solution containing CDDP for administration at 6.0 mg/kg/day.\nCompound 1 was suspended in 0.5% HPMC so as to obtain a 3 mg/ml suspension, 10 mg/ml suspension, and 30 mg/ml suspension, respectively, and each suspension was stirred by use of a stirrer for about 20 minutes at room temperature. Each suspension was subjected to sonication for 5 minutes while being cooled with ice to thereby obtain test solutions containing Compound 1 for administration at 30 mg/kg/day, 100 mg/kg/day, and 300 mg/kg/day, respectively.\nFive-week-old Donryu male rats were divided into a control group and treatment groups so that the average body weights of the groups and the standard deviations (S.D.) of the groups were made to be as close to one another as possible. Yoshida sarcoma (2×10^4 cells/0.1 ml/rat) was subcutaneously transplanted on the back of each rat, and administration was started the day following the day of transplant. To each rat of the CDDP treatment alone groups, the CDDP solution of 6.0 mg/kg was intravenously administered on the first administration day, and a 0.5% HPMC solution was orally administered for seven consecutive days at a daily dose of 1.0 ml per 100 g of body weight. […] To each rat of the control group, saline was intravenously administered on the first administration day in a dose of 1.0 ml per 100 g of body weight. Simultaneously, a 0.5% HPMC solution was orally administered once a day for five consecutive days at a daily dose of 1.0 ml per 100 g of body weight. In order to observe the action of Compound 1 per se, Compound-1-administration alone groups were provided for administration at 30 mg/kg/day, 100 mg/kg/day, and 300 mg/kg/day, respectively.\nThe rats were weighed on the day of transplantation (day 0) and the day following the day of final administration (day 8), and the suppression ratio of body weight increase was calculated by use of the following equation. Ratio of suppression of body weight increase (%)=(1−body weight changes of one treatment group/body weight changes of the control group)×100"}, "Yoshida sarcoma": {"system": "Yoshida sarcoma", "assay": "Test 3: action on anti-tumor action of cancer drug (tumor weight)", "type": "in vivo, Donryu male rats", "settings": "for Tumor weight: day 8; for Anti-tumor action / inhibition of tumor weight (in words): CDDP alone 6 mg/kg, Compound 1 for seven consecutive days with CDDP; for Inhibition ratio (%): tumor shrinkage vs control"}, "[2]": {"assay": "Test 2: delaying effect on diarrhea occurrence caused by CPT-11", "type": "in vivo, Donryu male rats", "settings": "CPT-11 60 mg/kg/day i.v. every day for five days; Compound 1 30 mg/kg/day oral concomitantly", "description": "Irinotecan hydrochloride (hereinafter referred to as “CPT-11”; KAMPTO Injection 100 mg/5 ml; product of Yakult Co., Ltd.) was diluted with saline so as to obtain a 6 mg/ml solution for administration at 60 mg/kg/day.\nCompound 1 was suspended in a 0.5% hydroxypropylmethyl cellulose solution (hereinafter referred to as “0.5% HPMC”) so as to obtain a 3 mg/ml suspension, and the suspension was stirred by use of a stirrer for about 20 minutes at room temperature. The suspension was subjected to ultrasound treatment for 5 minutes while being cooled with ice, to thereby obtain a test solution containing Compound 1 for administration at 30 mg/kg/day.\nFive-week-old Donryu male rats were divided into a control group and treatment groups so that the average body weights of the groups and the standard deviations (S.D.) of the groups were made to be as close to one another as possible. To each rat of the anti-tumor-agent treatment alone groups, the CPT-11 solution was intravenously administered once a day for five consecutive days at a daily dose of 1.0 ml per 100 g of body weight. […] The number of rats which had diarrhea at least once during the test period were counted as “diarrhea-rats”. The accumulated occurrence of diarrhea was calculated by use of the following equation: accumulated occurrence of diarrhea (%)=(the number of rats which had diarrhea/the total number of rats)×100"}, "IL-1β": {"system": "IL-1β", "assay": "Test 4: IL-1β level in the large intestine (ELISA)", "type": "in vivo, ICR mice", "settings": "for Level of IL-1β in the large intestine (in words): FTD 200 mg/kg/day eight consecutive days vs control, Compound 1 94 mg/kg incorporated; for Large intestine IL-1β: day 9, oral, eight days, FTD 200 mg/kg/day, Compound 1 94 mg/kg/day in the mixture, alone 100 mg/kg/day", "protocol": "(§1) To each rat of the control group, a 0.5% HPMC solution was perorally administered for eight consecutive days. In order to observe the action of Compound 1 per se, Compound 1-administration alone groups were provided for administration of 100 mg/kg/day. […] Immediately after the collected region were washed with saline, the portions were frozen to preserve at −80° C. Each sample preparation was diluted with a 0.05M phosphate buffer (pH 7.4) so as to attain a tissue concentration of approximately 10% (W/V), and the resultant mixture was homogenized, subjected to sonication, and subjected twice to freeze-thawing. The thus-treated matter was centrifuged at 12,000 g for 15 minutes, and the supernatant was collected to serve as a sample for cytokine measurement. Cytokines, i.e., IL-1β and mouse IL-6 were measured by use of an ELISA kit for mouse (product of Endogen, Inc.), and the results are shown in Table 4. Test results were statistically analyzed in accordance with the Dunnett method ((*; p<0.05) and (**; p<0.01))."}, "IL-6": {"system": "IL-6", "assay": "Test 4: IL-6 level in the small intestine and the large intestine (ELISA)", "type": "in vivo, ICR mice", "settings": "for Level of inflammatory cytokine IL-6 in the small intestine and the large intestine (in words): FTD 200 mg/kg/day eight consecutive days vs control, Compound 1 94 mg/kg incorporated; for Large intestine IL-6 / Small intestine IL-6: day 9, oral, eight days, FTD 200 mg/kg/day, Compound 1 94 mg/kg/day in the mixture, alone 100 mg/kg/day", "protocol": "as §1"}, "[3]": {"assay": "Test 4: measurement of body weight change after FTD", "type": "in vivo, ICR mice", "settings": "for Weight change ratio (%): body weight changes/body weight before administration x100, eight days, alone 100 mg/kg/day; for Weight change ratio (%) / Body weight change: oral, FTD 200 mg/kg/day, Compound 1 94 mg/kg/day in the mixture; for Body weight change: day 0 to day 9, eight consecutive days, Compound 1 alone 100 mg/kg/day", "description": "5-Trifluoromethyl-2′-deoxyuridine (hereinafter abbreviated as FTD) was suspended in a 0.5% HPMC solution so as to obtain a 20 mg/ml suspension, and the suspension was stirred by use of a stirrer for about 20 minutes at room temperature.\nFTD was suspended in a 0.5% HPMC solution so as to obtain a 20 mg/ml suspension. To the suspension, Compound 1 was added so as to attain a concentration of 9.4 mg/ml. The resultant mixture was stirred by use of a stirrer for about 20 minutes at room temperature, and then subjected to sonication under ice cooling, to thereby obtain a test solution containing FTD and Compound 1 (mol ratio 1:0.5).\nCompound 1 was suspended in a 0.5% HPMC solution so as to obtain a 10 mg/ml suspension, and the suspension was stirred by use of a stirrer for about 20 minutes at room temperature. The suspension was subjected to sonication for 5 minutes under ice cooling, to thereby obtain a test solution containing Compound 1 for administration of 100 mg/kg/day.\nEight-week-old male ICR rats were divided into a control group and treatment groups so that the average body weights of the groups and the standard deviations (S.D.) of the groups were made to be as close to one another as possible. To each rat of the FTD treatment alone groups, the FTD solution of 200 mg/kg/day (1.0 ml) was orally administered once a day for eight consecutive days (per 100 g body weight of each rat). To each rat of combination-administration treatment groups, a mixture solution of FTD and Compound 1 was perorally administered once a day for eight consecutive days at a daily dose of 1.0 ml per 100 g of body weight. To each rat of the control group, a 0.5% HPMC solution was perorally administered for eight consecutive days. In order to observe the action of Compound 1 per se, Compound 1-administration alone groups were provided for administration of 100 mg/kg/day.\nThe rats were weighed at the previous day of the first administration (day 0) and the following day of the day of final administration (day 9), and the ratio of body weight ratio was calculated by use of the following equation. Ratio of body weight change (%)=body weight changes/body weight before administration×100"}, "[4]": {"assay": "Test 1: alleviating effect on suppression of body weight increase caused by 5-FU or CDDP", "description": "5-Fluorouracil (hereinafter referred to as “5-FU”) was suspended in saline so as to obtain a 2.0 mg/ml suspension, and the suspension was stirred by use of a stirrer for about 20 minutes at room temperature. The suspension was treated with sonication for 5 minutes while being cooled with ice, to thereby obtain a test solution containing 5-FU for administration at 20 mg/kg/day.\nCisplatin (hereinafter referred to as “CDDP”) was suspended in saline so as to obtain a 0.1 mg/ml suspension, and the suspension was stirred by use of a stirrer for about 20 minutes at room temperature. The suspension was treated with sonication for 5 minutes while being cooled with ice, to thereby obtain a test solution containing CDDP for administration at 1.0 mg/kg/day.\nCompound 1 was suspended in water so as to obtain a 10 mg/ml suspension, and the suspension was stirred by use of a stirrer for about 20 minutes at room temperature. The suspension was treated with sonication for 5 minutes while being cooled with ice, to thereby obtain a test solution containing Compound 1 for administration at 100 mg/kg/day.\nFive-week-old Donryu male rats were divided into a control group and treatment groups so that the average body weights of the groups and the standard deviations (S.D.) of the groups were made to be as close to one another as possible. To each rat of the anti-tumor-agent treatment alone groups, the 5-FU solution or the CDDP solution was intravenously administered once a day for four consecutive days at a daily dose of 1.0 ml per 100 g of body weight. Simultaneously, water was orally administered once a day for four consecutive days at a daily dose of 1.0 ml per 100 g of body weight. To each rat of the combination-administration treatment groups, the 5-FU solution or the CDDP solution was intravenously administered once a day for four consecutive days at a daily dose of 1.0 ml per 100 g of body weight. Simultaneously, to each rat of the combination-administration groups, the solution of Compound 1 was orally administered once a day for four consecutive days at a daily dose of 1.0 ml per 100 g of body weight. To each rat of the control group, saline was intravenously administered once a day for four consecutive days at a daily dose of 1.0 ml per 100 g of body weight. Simultaneously, water was orally administered once a day for four consecutive days at a daily dose of 1.0 ml per 100 g of body weight.\nThe rats were weighed prior to initiation of administration (day 1) and on the day following the day of final administration (day 5), and the ratio of suppression of body weight increase was calculated by use of the following equation.\nTest results were statistically analyzed using the Student's “T” test. […]"}, "[5]": {"settings": "CDDP 6.0 mg/kg i.v. on first day + vehicle oral 7 days"}, "[6]": {"settings": "Compound 1 30 mg/kg/day oral 7 days, with CDDP 6.0 mg/kg i.v. day 1 or saline"}, "[7]": {"settings": "Compound 1 100 mg/kg/day oral 7 days, with CDDP 6.0 mg/kg i.v. day 1 or saline"}, "[8]": {"settings": "Compound 1 300 mg/kg/day oral 7 days, with CDDP 6.0 mg/kg i.v. day 1 or saline"}}, "note": "Where a name gives a salt, the structure may show the parent alone. Marks after values point to notes of the source that are not given here."}
{"compound": "[NH2][Pt]([NH2])([Cl])[Cl]", "note": "[CDDP, Cisplatin, reference compound]", "values": [{"measurement": "Suppression of body weight (in words)", "setting": "[1]", "result": "Significant inhibition"}, {"measurement": "Body weight change", "setting": "[1]; [5]", "result": "-19.4 ± 8.6", "unit": "g"}, {"measurement": "Weight change ratio (%)", "setting": "[1]; [5]", "result": 174.9, "unit": "%"}, {"measurement": "Tumor weight", "setting": "Yoshida sarcoma; CDDP 6.0 mg/kg i.v. on first day + 0.5% HPMC vehicle oral 7 days", "result": "0.162 ± 0.155", "unit": "g"}, {"measurement": "Anti-tumor action / inhibition of tumor weight (in words)", "setting": "Yoshida sarcoma", "result": "Significant inhibition of tumor weight"}, {"measurement": "Inhibition ratio (%)", "setting": "Yoshida sarcoma; [5]", "result": 75.7, "unit": "%"}]}
{"compound": "CCc1c2c(nc3ccc(OC(=O)N4CCC(N5CCCCC5)CC4)cc13)-c1cc3c(c(=O)n1C2)COC(=O)[C@]3(O)CC", "note": "[CPT-11, Irinotecan hydrochloride, reference compound]", "values": [{"measurement": "Accumulated occurrence of diarrhea (FIG. 1, in words)", "setting": "[2]", "result": "diarrhea occurred after the third administration day"}]}
{"compound": "Cl.N=C1CCCN1Cc1[nH]c(=O)[nH]c(=O)c1Cl", "note": "[Compound 1, 5-Chloro-6-(2-iminopyrrolidin-1-yl)methyl-2,4-(1H,3H)-pyrimidinedione Hydrochloride]", "values": [{"measurement": "Level of IL-1β in the large intestine (in words)", "setting": "IL-1β", "result": "inhibited"}, {"measurement": "Large intestine IL-1β", "setting": "IL-1β", "result": "23.7 ± 4.6", "unit": "pg/mg protein"}, {"measurement": "Accumulated occurrence of diarrhea (FIG. 1, in words)", "setting": "[2]", "result": "delayed"}, {"measurement": "Suppression of body weight (in words)", "setting": "[1]", "result": "suppression of body weight was alleviated"}, {"measurement": "Body weight change", "setting": "[1]; [6]", "result": "29.3 ± 10.2", "unit": "g"}, {"measurement": "Body weight change", "setting": "[1]; [7]", "result": "23.9 ± 6.6", "unit": "g"}, {"measurement": "Body weight change", "setting": "[1]; [8]", "result": "28.1 ± 6.0", "unit": "g"}, {"measurement": "Weight change ratio (%)", "setting": "[1]; [6]", "result": "−13.1", "unit": "%"}, {"measurement": "Weight change ratio (%)", "setting": "[1]; [7]", "result": 7.7, "unit": "%"}, {"measurement": "Weight change ratio (%)", "setting": "[1]; [8]", "result": "−8.5", "unit": "%"}, {"measurement": "Level of inflammatory cytokine IL-6 in the small intestine and the large intestine (in words)", "setting": "IL-6", "result": "inhibited"}, {"measurement": "Large intestine IL-6", "setting": "IL-6", "result": "10.7 ± 4.7", "unit": "pg/mg protein"}, {"measurement": "Small intestine IL-6", "setting": "IL-6", "result": "19.8 ± 9.9", "unit": "pg/mg protein"}, {"measurement": "Decrease in the body weight caused by FTD (in words)", "setting": "[3]; Compound 1 94 mg/kg/day incorporated with FTD 200 mg/kg/day", "result": "protected"}, {"measurement": "Weight change ratio (%)", "setting": "[3]", "result": 6.8, "unit": "%"}, {"measurement": "Body weight change", "setting": "[3]", "result": "2.4 ± 1.1", "unit": "g"}, {"measurement": "Occurrence of diarrhea, combination-administration groups vs anti-tumor-agent-administration alone groups", "setting": "[4]; Compound 1 100 mg/kg/day with 5-FU 20 mg/kg/day or CDDP 1.0 mg/kg/day", "result": "lower"}, {"measurement": "Anti-tumor action / inhibition of tumor weight (in words)", "setting": "Yoshida sarcoma", "result": "without affecting the anti-tumor action"}, {"measurement": "Tumor weight", "setting": "Yoshida sarcoma; [6]", "result": "0.787 ± 0.307", "unit": "g"}, {"measurement": "Tumor weight", "setting": "Yoshida sarcoma; [7]", "result": "0.816 ± 0.329", "unit": "g"}, {"measurement": "Tumor weight", "setting": "Yoshida sarcoma; [8]", "result": "0.829 ± 0.281", "unit": "g"}, {"measurement": "Inhibition ratio (%)", "setting": "Yoshida sarcoma; [6]", "result": "−18.1", "unit": "%"}, {"measurement": "Inhibition ratio (%)", "setting": "Yoshida sarcoma; [7]", "result": "−22.4", "unit": "%"}, {"measurement": "Inhibition ratio (%)", "setting": "Yoshida sarcoma; [8]", "result": "−24.5", "unit": "%"}]}
{"compound": "O=c1[nH]cc(F)c(=O)[nH]1", "note": "[Compound 5-FU, 5-Fluorouracil]", "values": [{"measurement": "Suppression of body weight increase (in words)", "setting": "[4]; 5-FU 20 mg/kg/day or CDDP 1.0 mg/kg/day for 4 consecutive days, Compound 1 100 mg/kg/day in combination with the anti-tumor agent", "result": "Suppression of body weight increase was confirmed"}, {"measurement": "Body weight change", "setting": "[4]; day 1 to day 5, 5-FU 20 mg/kg/day or CDDP 1.0 mg/kg/day i.v., Compound 1 100 mg/kg/day oral, four consecutive days, mean ± S.D.", "result": "15.6 ± 3.6", "unit": "g"}, {"measurement": "Suppression ratio (%) (ratio of suppression of body weight increase)", "setting": "[4]; vs control group, 5-FU 20 mg/kg/day or CDDP 1.0 mg/kg/day i.v., Compound 1 100 mg/kg/day oral, four consecutive days", "result": 46.7, "unit": "%"}]}
{"compound": "O=c1[nH]c(=O)n([C@H]2C[C@H](O)[C@@H](CO)O2)cc1C(F)(F)F", "note": "[FTD, 5-Trifluoromethyl-2′-deoxyuridine, reference compound]", "values": [{"measurement": "Level of IL-1β in the large intestine (in words)", "setting": "IL-1β", "result": "elevated"}, {"measurement": "Large intestine IL-1β", "setting": "IL-1β", "result": "77.3 ± 42.1** pg/mg protein"}, {"measurement": "Level of inflammatory cytokine IL-6 in the small intestine and the large intestine (in words)", "setting": "IL-6", "result": "high level"}, {"measurement": "Large intestine IL-6", "setting": "IL-6", "result": "118.0 ± 47.6** pg/mg protein"}, {"measurement": "Small intestine IL-6", "setting": "IL-6", "result": "95.5 ± 19.2** pg/mg protein"}, {"measurement": "Weight change ratio (%)", "setting": "[3]", "result": "−17.6", "unit": "%"}, {"measurement": "Body weight change", "setting": "[3]", "result": "-1.6 ± 4.7", "unit": "g"}, {"measurement": "Decrease ratio of the body weight at the following day of the final administration to that before administration", "setting": "[3]; solo FTD 200 mg/kg daily for eight consecutive days", "result": "approximately 18%"}]}
